Measured values as given in PMC11372076, “A dual inhibitor of PIP5K1C and PIKfyve prevents SARS-CoV-2 entry into cells” (Experimental & Molecular Medicine, 2024).
Like-named read-outs stand apart in the source and are kept apart here.

What was measured:
[1] = tested on: RPE1 cells; test: Western blot of autophagy-monitoring proteins SQSTM1/p62 and LC3-II; type: cell-based
Excerpt: Fig. 2 UNI418 inhibits autophagy. a Western blot analysis of p62, LC3B-I, LC3B-II and GAPDH in the presence of UNC3230, apilimod and UNI418. b Immunofluorescence staining with LC3B (green) and p62 (red) antibodies upon treatment with UNC3230, apilimod and UNI418, and images within the white rectangular boxes are magnified on the right side. Scale bar, 20 µm. c The area of fluorescence intensity from immunofluorescence images (b) was quantified after UNC3230, apilimod and UNI418 treatments. d, e Quantification of autophagic flux under normal conditions and under HBSS-induced starvation conditions with or without UNI418 treatment. RPE1 cells were treated with UNI418 (0.5 µM or 1 µM) for 2 h in the presence or absence of a lysosomal inhibitor (bafilomycin A1, BFA). Representative Western blot images (d) and the graph showing the average of 4 independent experiments (e). The error bars indicate the S.D. Statistical analysis was performed using two-way ANOVA; *p < 0.05, ***p < 0.001.
Supplementary Materials and Methods
The whole cell extracts were prepared by lysis of harvested cells with M -PER Mammalian protein extraction reagent (Thermo Fisher Scientific). The protein concentrations were determined by Bradford protein assay (Bio- Rad). The 10 to 20 μ g of prepared proteins were separated by the SDS-PAGE and transferred to PVDF membrane, which were then blocked in 5% skim milk for 30 minutes at room temperature. […] The images were obtained and quantified by Fusion solo ChemiDoc system (Vilber).
Autophagic flux assay was analyzed essentially as previously described1,2.
Briefly, RPE1 cells were treated with UNI418 (0, 0.5, or 1 µM) for 2 h with/without bafilomycin A1 to inhibit lysosomal degradation under normal growth media or HBSS. […] The LC3- II bands were quantified using Fusion Solo ChemiDoc system (Vilber) and normalized to GAPDH bands.
Autophagy flux was calculated by subsidizing the lysosomal inhibitor-treated cells to non- treatment cells in both normal growth media and HBSS-induced starvation with 0, 0.5, or 1 µM UNI418. […]

[2] = tested on: Wuhan-Hu-1 spike-pseudotyped virus; test: microbe, parasite or virus in culture; type: cell-based, SARS-CoV-2; details: read-out: concentration that inhibited spike-mediated viral entry by 50% compared to maximal inhibition
[3] = tested on: Vero cells
[4] = tested on: SARS-CoV-2; test: microbe, parasite or virus in culture; type: cell-based, SARS-CoV-2 (hCoV-19/Korea/KCDC06/2020); details: for EC50: read-out: EC50 (reducing number of spike-positive cells by 50%)
[5] = tested on: ACE2-mediated endocytosis in HEK293T cells; type: cell-based; details: 20 μg/mL spike-RBD, 2 h
[6] = tested on: cathepsin D; test: Cathepsin D maturation by Western blot; type: cell-based
[7] = tested on: Vero cells; test: Endosomal pH change test with acridine orange; type: cell-based; details: 1 µM for 1 h
Protocol: This image-based experiment was performed according to our previous report with some modifications. Vero cells were cultured in a glass bottom 35 mm dish (6 × 10^4 cells per well) overnight. Each compound, including 1 µM UNC3230, apilimod or UNI418, was added to Vero cells for 1 h at 37 °C. The cells were stained with acridine orange (Sigma‒Aldrich, A9231) at a final concentration of 4 µg/mL for 30 min. After washing with PBS twice, images were acquired using a confocal microscope (Zeiss LSM 700, Baden-Württemberg, Germany) at two emission wavelengths, 493 to 560 nm and 590 to 720 nm, with excitation at 488 nm. The green-to-red ratio or vacuole size was measured using the built-in software ZEN 3.1.
Fig. 3 UNI418 negatively affects autophagosome-lysosome fusion and endosome acidification. a Live-cell imaging of HEK293T cells stably expressing mCherry-GFP-LC3 treated with 0.5 μM UNI418 at the indicated time points; the images within the white rectangular boxes are magnified on the right side. Scale bar, 30 µm. The number (b) and area (c) of GFP-positive dots per cell were quantified by ImageXpress. d Immunofluorescence images illustrating the inhibition of endolysosomal acidification by UNI418. Vero cells were treated with the mock control or 1 µM UNC3230, apilimod or UNI418 for 1 h at 37 °C. Acridine orange (4 µg/mL) was added to the compound-treated live cells, followed by additional incubation for 30 min. The cells were analyzed by confocal microscopy using two emission wavelengths at 493–560 (green) and 590–720 nm (red) after excitation at 488 nm. Merged images are presented, and images within the white rectangular boxes are magnified on the right side. Original magnification, 630×. The green-to-red fluorescence intensity ratio (e) and the area of fluorescent spots (f) were quantified. b, c, e, f The data are presented as the means ± SEMs, with a minimum of 200 spots. Statistical significance was determined by Student’s t test; *p < 0.05, **p < 0.01, ***p < 0.001 and ****p < 0.0001. n.s., not significant.

[8] = tested on: RPE1 cells; test: Vacuolization analysis; type: cell-based
Protocol: CUGAUCAAGAU G A -3 and PIKfyve#2 siRNA 5'-
[…] -3'. siRNA oligonucleotides were purchased from Genolution, Sigma- Aldrich and Integrated DNA Technologies.
These siRNAs were transfected into the cell using lipofectamine RNAiMAX (Invitrogen, 13778150) following manufacturer ’s protocol.
RPE1 cells were treated with UNI418 at indicated concentration for over-night.
After that, the image was taken by EVOS M5000 (Thermo Fisher Scientific).
RPE1 cells were treated with UNI418 at the different concentration during the time. Live cell images were taken by Lionheart LX Automated Microscope and analyzed in Gen5 (Agilent).
RPE1 cells were treated with indicated doses of UNI418 overnight. To analyze PIP2 level by flow cytometry, trypsinized cells were fixed with 4% paraformaldehyde for 10 min at room temperature. The fixed cells were permeabilized with 0.2% PBS-T (Triton X-100) for 5min and blocked with 5% Bovine Serum Albumin (BSA), and stained with the primary antibody for 4h at 4°C. Cells were washed three times with 1% BSA-PBS and incubated with the fluorescence- conjugated secondary antibody Alexa Fluor® 488 AffiniPure Goat Anti-Mouse IgG (H+L) (Jackson ImmunoResearch,111- 545- 003) for 1h at room temperature analyzed by BD Accuri C6 Plus flow cytometer (BD Biosciences). […]

[9] = in vitro; details: African green monkey

NC(=O)c1nc(Nc2ccccc2)sc1NC(=O)C1CCCCC1 [UNC3230]
accumulation of SQSTM1/p62 and LC3-II [1]: did not have the same effect | IC50 [2]: 4 µM | cytotoxicity on Day 2 ([3]; Vero cells, Day 2): highly toxic | CC50 ([3]; mock-infected Vero cells, MTT, Day 1): > 100 µM | EC50 [4]: 95.1 µM | ACE2-mediated endocytosis triggered by spike-RBD ([5]; 0.5 μM compound): successfully inhibited | proteolytic cleavage (maturation) of cathepsin D [6]: did not | green-to-red ratio of fluorescent spots relative to mock-treated sample [7]: 2.6 fold | vacuolization [8]: did not induce vacuoles

O=C(N/N=C/c1ccc(O)c(O)c1)c1cc2ccccc2cc1O [dynasore]
ACE2-mediated endocytosis triggered by spike-RBD ([5]; 0.1 mM dynasore): successfully inhibited

CCC(CC)COC(=O)[C@H](C)N[P@](=O)(OC[C@H]1O[C@@](C#N)(c2ccc3c(N)ncnn23)[C@H](O)[C@@H]1O)Oc1ccccc1 [remdesivir]
EC50 ([4]; Severe acute respiratory syndrome coronavirus 2, Vero, 48 h): 8.9 µM | selectivity index (SI), ratio of CC50 to EC50 ([4]; Vero cells, Day 2): > 11.2 | CC50 [9]: > 100 µM
